PMC10489938, “Developing an Amide-Spacered Triterpenoid Rhodamine Hybrid of Nano-Molar Cytotoxicity Combined with Excellent Tumor Cell/Non-Tumor Cell Selectivity” (Molecules, 2023)
Structures can show the parent of a compound that is named as a salt. Where two headings read alike, the source gives them in different places.

Assays:
A375 (melanoma) = experiment: SRB cytotoxicity assay, A375; assay type: cell-based, human; settings: read-out: Cytotoxicity (EC50) A375
Method: (§1) Sulforhodamine (SRB) assays were performed to evaluate the cytotoxicity of the compounds. First, the cytotoxicity of the different rhodamines was determined; the results of these assays are compiled in Table 1 and Table 2 and depicted in Figure 1.
(§2) Experimental equipment: as previously described biological assays were performed as previously reported employing cell lines obtained from the Department of Oncology [Martin-Luther-University Halle Wittenberg; they were bought from ATCC [2, 4, 7]]. Rhodamine 101 B, as well as asiatic acid, were obtained from local vendors and used as received.
(§3) For the SRB assay and staining experiments: as previously described.

[1] = system: HT29 (colorectal carcinoma); experiment: SRB cytotoxicity assay, HT29; assay type: cell-based, human; settings: read-out: Cytotoxicity (EC50) HT29
Method: as §1, §2, §3

[2] = system: MCF7 (breast adenocarcinoma); experiment: SRB cytotoxicity assay, MCF7; assay type: cell-based, human; settings: read-out: Cytotoxicity (EC50) MCF7
Method: as §1, §2, §3

[3] = system: A2780 (ovarian carcinoma); experiment: SRB cytotoxicity assay, A2780; assay type: cell-based, human; settings: read-out: Cytotoxicity (EC50) A2780
Method: as §1, §2, §3

[4] = system: HeLa (cervical adenocarcinoma); experiment: SRB cytotoxicity assay, HeLa; assay type: cell-based, human; settings: read-out: Cytotoxicity (EC50) HeLa
Method: as §1, §2, §3

[5] = SRB cytotoxicity assay, NIH 3T3; assay type: cell-based, murine; settings: mouse, NIH 3T3 non-malignant fibroblasts, Table 1, 72 h of treatment, cut-off 30 μM
Method: as §1, §2, §3

[6] = system: human tumor cell lines and non-malignant fibroblasts (NIH 3T3); experiment: SRB cytotoxicity assay, several cell lines stated together; assay type: cell-based; settings: all human tumor cell lines and non-malignant fibroblasts (NIH 3T3), limits of the assay
Method: as §1, §2, §3

[7] = system: NIH 3T3 (non-malignant fibroblasts, murine); experiment: SRB cytotoxicity assay, NIH 3T3; assay type: cell-based; settings: Table 1, 72 h of treatment, cut-off 30 μM
Method: as §1, §2, §3

[8] = Table 1, SRB assay, 72 h of treatment, cut-off 30 μM

With `CCCCN(CCCC)c1ccc2c(-c3ccccc3C(=O)N3CCCN(C(=O)[C@]45CC[C@@H](C)[C@H](C)[C@H]4C4=CC[C@@H]6[C@@]7(C)C[C@@H](OC(C)=O)[C@H](OC(C)=O)[C@@](C)(COC(C)=O)C7CC[C@@]6(C)[C@]4(C)CC5)CCC3)c3ccc(=[N+](CCCC)CCCC)cc-3oc2c1` (stereo partly drawn) (as salt: chloride) [compound 19, (2α,3β,4α)-9-[2-[{4-(2α,3β,23-Tris(Acetyloxy)-urs-12-en-28-oyl)-1,5-Diazocan-1-Yl]Carbonyl}Phenyl]-3,6-Bis(Dibutylamino)-Xanthylium Chloride] as the compound, how does the melting point read?
The melting point was 215 to 218 °C.

With `CN(C)c1ccc2c(-c3ccccc3C(=O)O)c3ccc(=[N+](C)C)cc-3oc2c1` [Rh1, reference compound] as the compound, how does the EC50 (A375 (melanoma); Homo sapiens, A-375, 72 h) read?
Its EC50 is greater than 30 µM.

And the EC50 ([1]; Homo sapiens, HT-29, 72 h)?
Its EC50 is greater than 30 µM.

And the EC50 ([2]; Homo sapiens, MCF7, 72 h)?
Its EC50 is greater than 30 µM.

What about the EC50 ([3]; Homo sapiens, A2780, 72 h) of the same compound?
Its EC50 is greater than 30 µM.

And the EC50 ([4]; Homo sapiens, HeLa, 72 h)?
The EC50 was greater than 30 µM.

And the EC50 at 72 h [5]?
Its EC50 at 72 h is greater than 30 µM.

What about the EC50 ([6]; NIH3T3) of the same compound?
The EC50 was greater than 30 µM.

Which EC50 (A375 (melanoma); [8]) does the source give for rhodamine B [Rh2, reference compound] here?
The EC50 was greater than 30 µM.

And the EC50 [1, 8]?
The EC50 was greater than 30 µM.

What about the EC50 [2, 8] of the same compound?
The EC50 was greater than 30 µM.

And the EC50 [3, 8]?
The EC50 was greater than 30 µM.

And the EC50 [4, 8]?
Its EC50 is greater than 30 µM.

And the EC50 [7]?
Its EC50 is greater than 30 µM.

And the EC50 [6]?
The EC50 was greater than 30 µM.
